Assay results reported in PubChem BioAssay AID330 (DTP/NCI, 2004).
Where “and” joins values, the source holds several entries; their conditions need not be identical. Identical values can stand only once. Toxic doses and inconclusive results are not listed. The calls were made as follows: active = survival T/C of 150% or more; inactive = T/C below 125% in these data.

Tested on: P388 leukemia ip, CD2F1 mice, survival T/C
Experiment: NCI In Vivo Anticancer Drug Screen. Data for tumor model P388 Leukemia (intraperitoneal) in CD2F1 (CDF1) mice
Conditions: endpoint: median survival time, higher = longer survival
Outline: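 Mice carrying the transplanted tumor received test compound or vehicle. Survival was recorded in each group, and the value is the treated-group measurement divided by that of the vehicle-treated control group.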

[1] = dose: 100.0 mg/kg/injection, schedule: Q04DX003 (ip), vehicle: Klucel (hydroxypropylcellulose) (HPC)
[2] = dose: 100.0 mg/kg/injection, schedule: Q01DX001 (ip), vehicle: Klucel (hydroxypropylcellulose) (HPC)
[3] = dose: 50.0 mg/kg/injection, schedule: Q01DX005 (ip), vehicle: Klucel (hydroxypropylcellulose) (HPC)
[4] = dose: 100.0 mg/kg/injection, schedule: Q01DX005 (ip), vehicle: Klucel (hydroxypropylcellulose) (HPC)
[5] = dose: 50.0 mg/kg/injection, schedule: Q01DX005 (ip), vehicle: saline with Tween-80
[6] = dose: 100.0 mg/kg/injection, schedule: Q01DX005 (ip), vehicle: saline with Tween-80
[7] = dose: 200.0 mg/kg/injection, schedule: Q01DX005 (ip), vehicle: saline with Tween-80
[8] = dose: 200.0 mg/kg/injection, schedule: Q01DX005 (ip), vehicle: Klucel (hydroxypropylcellulose) (HPC)

Measured: T/C

Cn1c(-c2ccc(Cl)cc2)cc2cc(CN3C(=O)c4ccccc4C3=O)ccc21
inactive: dose: 25.0 mg/kg/injection, schedule: Q04DX003 (ip), vehicle: Klucel (hydroxypropylcellulose) (HPC) 95 % of control | dose: 50.0 mg/kg/injection, schedule: Q04DX003 (ip), vehicle: Klucel (hydroxypropylcellulose) (HPC) 96 % of control | [1] 87 % of control and 88 % of control | dose: 400.0 mg/kg/injection, schedule: Q04DX003 (ip), vehicle: Klucel (hydroxypropylcellulose) (HPC) 87 % of control

CCOC(=O)C1CCC/C1=N/Nc1ccc([N+](=O)[O-])cc1[N+](=O)[O-] (stereo not given)
inactive: [2] 94 % of control | dose: 200.0 mg/kg/injection, schedule: Q01DX001 (ip), vehicle: Klucel (hydroxypropylcellulose) (HPC) 93 % of control | dose: 400.0 mg/kg/injection, schedule: Q01DX001 (ip), vehicle: Klucel (hydroxypropylcellulose) (HPC) 93 % of control

OCC1OC2OCCOC2OC1CO (stereo not given)
inactive: dose: 100.0 mg/kg/injection, schedule: Q01DX001 (ip), vehicle: saline 102 % of control | dose: 200.0 mg/kg/injection, schedule: Q01DX001 (ip), vehicle: saline 96 % of control | dose: 400.0 mg/kg/injection, schedule: Q01DX001 (ip), vehicle: saline 102 % of control

COc1ccc2c3c([nH]c2c1N)C(C)NCC3 (stereo not given)
inactive: dose: 12.5 mg/kg/injection, schedule: Q01DX005 (ip), vehicle: Klucel (hydroxypropylcellulose) (HPC) 102 % of control | dose: 25.0 mg/kg/injection, schedule: Q01DX005 (ip), vehicle: Klucel (hydroxypropylcellulose) (HPC) 96 % of control | [3] 104 % of control | [4] 104 % of control

CCOc1ccc(/C=N/NC(=O)C(=O)N/N=C/c2ccc(OCC)c(OCC)c2)cc1OCC
inactive: dose: 6.25 mg/kg/injection, schedule: Q01DX005 (ip), vehicle: Klucel (hydroxypropylcellulose) (HPC) 102 % of control and 95 % of control and 96 % of control | dose: 50.0 mg/kg/injection, schedule: Q01DX009 (ip), vehicle: Klucel (hydroxypropylcellulose) (HPC) 90 % of control | dose: 200.0 mg/kg/injection, schedule: Q01DX009 (ip), vehicle: Klucel (hydroxypropylcellulose) (HPC) 92 % of control

CCOP(=O)(OCC)c1nc(Cl)nc(Cl)c1SC(F)(F)F
inactive: dose: 3.75 mg/kg/injection, schedule: Q01DX005 (ip), vehicle: saline with Tween-80 113 % of control | dose: 7.5 mg/kg/injection, schedule: Q01DX005 (ip), vehicle: saline with Tween-80 104 % of control | dose: 15.0 mg/kg/injection, schedule: Q01DX005 (ip), vehicle: saline with Tween-80 100 % of control

CC(N)C1CCC2C3CC=C4CC(N)CCC4(C)C3CCC12C (stereo not given)
inactive: dose: 10.0 mg/kg/injection, schedule: Q01DX009 (ip), vehicle: saline with Tween-80 112 % of control | dose: 20.0 mg/kg/injection, schedule: Q01DX009 (ip), vehicle: saline with Tween-80 94 % of control

NC1CN(C(COCc2ccccc2)c2ccc(OCc3ccccc3)cc2)C1=O (stereo not given)
inactive: [5] 100 % of control | [6] 103 % of control | [7] 97 % of control

Cc1cc(C)c(O)c(C(c2ccccc2)c2cc(C)cc(C)c2O)c1
inactive: dose: 50.0 mg/kg/injection, schedule: Q01DX009 (ip), vehicle: saline with Tween-80 99 % of control | dose: 100.0 mg/kg/injection, schedule: Q01DX009 (ip), vehicle: saline with Tween-80 118 % of control | dose: 200.0 mg/kg/injection, schedule: Q01DX009 (ip), vehicle: saline with Tween-80 115 % of control

Clc1ccc(Nc2ncnc3oc(-c4ccccc4)c(-c4ccccc4)c23)cc1
inactive: dose: 60.0 mg/kg/injection, schedule: Q01DX005 (ip), vehicle: saline with Tween-80 100 % of control | dose: 120.0 mg/kg/injection, schedule: Q01DX005 (ip), vehicle: saline with Tween-80 97 % of control | dose: 240.0 mg/kg/injection, schedule: Q01DX005 (ip), vehicle: saline with Tween-80 90 % of control

CCCCNCCC1(CCC(C)C)C(=O)NC(=O)NC1=O
inactive: [3] 96 % of control | [4] 105 % of control | [8] 101 % of control

CNC(=O)OCc1c(Cl)nc2n1CCS2
inactive: dose: 25.0 mg/kg/injection, schedule: Q01DX001 (ip), vehicle: Klucel (hydroxypropylcellulose) (HPC) 109 % of control | dose: 50.0 mg/kg/injection, schedule: Q01DX001 (ip), vehicle: Klucel (hydroxypropylcellulose) (HPC) 109 % of control | [2] 106 % of control

Cc1ccc(C(=Nc2ccccc2Cl)N(O)c2ccccc2)cc1
inactive: [3] 107 % of control | [4] 102 % of control | [8] 95 % of control

COC(=O)c1cc(OC(C)=O)c2cc3c(cc2c1-c1cc(OC)c(OC)c(OC)c1)OCO3
inactive: [1] 93 % of control | dose: 200.0 mg/kg/injection, schedule: Q04DX003 (ip), vehicle: Klucel (hydroxypropylcellulose) (HPC) 89 % of control

Cc1nn(C(N)=S)c(C)c1N=Nc1cc(Cl)ccc1Cl
inactive: [5] 94 % of control | [6] 86 % of control | [7] 88 % of control
